Laboratory results reported in patent publication US20220133783A1 (priority 2020, published 2022).
Values joined by “and” are separate entries in the source; they are usually repeats but may differ in a detail not shown here. Equal entries are not always repeated.

How the values were obtained:
[1] = test system: VSV pseudo typed with SARS-CoV2 Spike protein (rVSG-dG 2019-CoV-2-18AA S); type: cell-based
Human coronavirus 229E = type: cell-based; settings: 10 min pre-treatment with 10 μg/mL
virus = settings: cited from earlier work

| Substance | FIC of the single agent within the combination [1] | human coronavirus 229E binding and replication in the MRC-5 cell line (Human coronavirus 229E; SEM) | viral entry and cytopathic effects caused by the virus (Human coronavirus 229E; after 48 hours of incubation, compared to controls) | cytotoxicity (MRC-5 cells) | reported effect by itself on virus inhibition (antiviral concentration) (virus) |
| --- | --- | --- | --- | --- | --- |
| ethyl-N-alpha-lauroyl-L-arginate HCl [ELAH] | 0.10 | inhibited | reduces | non-cytotoxic | 300 µg/mL |
| copper | 0.10 and 0.07 |  |  |  | 300 µg/mL |
